The molecules below were run against T1, human H1 receptor (Homo sapiens, UniProt P35367) (assay: Histamine H1 receptor binding, competition displacement of [3H]-pyrilamine). Settings: displacement of 1 nM [3H]-pyrilamine; membranes from recombinant CHO-K1 cells expressing the human H1 receptor; 1 hour at room temperature; read-out: H1 pKi (converted).
T1 construct: purchased Euroscreen SA, Brussels, Belgium ES-390-M; host or cells: CHO-K1
Method: Histamine H1 receptor binding activity of compounds of the invention was assessed by competition displacement of 1 nM [3H]-pyrilamine (Amersham, Bucks, Product code TRK 608, specific activity 30 Ci/mmol) to 2 μg membranes prepared from recombinant CHO-K1 cells expressing the human H1 receptor (Euroscreen SA, Brussels, Belgium, product code ES-390-M) in assay buffer (50 mM Tris pH 7.4 containing 2 mM MgCl2, 250 mM sucrose and 100 mM NaCl) for 1 hour at room temperature.
The following compounds of the invention gave inhibition of [3H] pyrilimine binding: […]

T1 sequence (P35367 whole entry): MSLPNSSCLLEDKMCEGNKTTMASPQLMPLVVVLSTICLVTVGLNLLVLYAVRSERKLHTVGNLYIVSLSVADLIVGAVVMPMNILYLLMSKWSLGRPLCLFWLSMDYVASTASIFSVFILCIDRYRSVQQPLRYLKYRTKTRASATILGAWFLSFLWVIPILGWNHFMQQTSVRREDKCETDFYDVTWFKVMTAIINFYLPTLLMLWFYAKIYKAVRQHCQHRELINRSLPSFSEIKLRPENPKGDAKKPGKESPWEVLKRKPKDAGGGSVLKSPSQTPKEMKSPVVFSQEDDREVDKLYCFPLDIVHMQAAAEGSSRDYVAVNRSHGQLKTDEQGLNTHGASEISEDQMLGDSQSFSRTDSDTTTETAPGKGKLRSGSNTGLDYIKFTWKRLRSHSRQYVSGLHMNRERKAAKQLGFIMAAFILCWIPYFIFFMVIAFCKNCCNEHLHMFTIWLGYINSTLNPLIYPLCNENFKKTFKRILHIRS

Row | Ki | Compound
1 | 126 nM | O=C(O)[C@H]1C2CCC(C2)[C@H]1N1CCC(CN2CCC(Oc3ccc(Cl)c(Cl)c3)CC2)CC1 (mixture of isomers) [Example 3A, (2S,3R) and (2R,3S)-3-(4-{[4-(3,4-dichlorophenoxy)piperidin-1-yl]methyl}piperidin-1-yl)bicyclo[2.2.1]heptane-2-carboxylic acid]
2 | 200 nM | O=C(O)[C@@H]1CCCC[C@H]1N1CCC(CN2CCC(Oc3ccc(Cl)c(Cl)c3)CC2)CC1 (racemic) [Example 1A, (1R,2R) and (1S,2S)-2-(4-{[4-(3,4-dichlorophenoxy)piperidin-1-yl]methyl}piperidin-1-yl)cyclohexanecarboxylic acid]
3 | 316 nM | O=C(O)C1CCCC1N1CCC(CN2CCC(Oc3ccc(Cl)c(Cl)c3)CC2)CC1 [Example 4A, (1S,2R) and (1R,2S)-2-(4-{[4-(3,4-dichlorophenoxy)piperidin-1-yl]methyl}piperidin-1-yl)cyclopentanecarboxylate]

From patent publication US20080200505A1, “Piperidines for the Treatment of Chemokine Mediated Diseases” (ASTRAZENECA AB, priority 2005, published 2008)
